Measured values published in a melting point compilation (Tetko et al.).

Row | Structure (SMILES) | melting point
1 | N#Cc1ccc(C(=O)CC(=O)C(F)(F)F)cc1 | 128 to 130 °C
2 | Cc1nc(SCC(=O)O)c(C#N)c(C)c1C | 135 to 138 °C
3 | CC(C)(C)n1cc(C(=O)O)c(-c2ccccc2Cl)n1 | 164 to 166 °C
4 | COc1ccc(N)cc1NC(=O)OC(C)(C)C | 108 to 110 °C
5 | Cc1nnc2n1CC(CO)CC2 (centres undefined) | 158 to 160 °C
6 | NC(=O)N1CCCCC1C(=O)O (centres undefined) | 139 to 141 °C
7 | Cc1ccc(C(=O)CCl)cc1 | 53 to 57 °C
8 | O=Cc1cnc2cnccn12 | 178 to 180 °C
9 | Cc1ccc(S(=O)(=O)N2CCCC2)cc1C(=O)O | 178 to 180 °C
10 | CCOC(=O)C1=NN(c2ccccc2)C(C#N)C1 (centres undefined) | 99 to 101 °C
11 | O=Cc1cn(-c2ccccc2)nc1-c1cc2ccccc2o1 | 176 to 178 °C
12 | Sc1nc2cc(Cl)cnc2[nH]1 | 352 to 354 °C
13 | O=C(O)c1cc(F)ccc1I | 146 to 148 °C
14 | COC(=O)c1sc2ccccc2c1S(=O)(=O)Cl | 98 to 100 °C
15 | CCc1sc(C(=O)NNC(=O)CCl)cc1C | 160 to 162 °C
16 | O=C(Nc1nncs1)OCC(F)(F)F | 213 to 215 °C
17 | Cc1ccc(-n2cccc2)cc1 | 82 to 84 °C
18 | CN1Cc2ccc(N)cc2C1 | 61 to 63 °C
19 | CC(C)CC1CC(=O)NC(=O)C1 | 136 to 138 °C
20 | O=Cc1sc2ccccc2c1Cl | 104 to 106 °C
21 | O=C(O)Cn1cc([N+](=O)[O-])ccc1=O | 225 to 227 °C
22 | O=C1CCc2ccc(Br)cc2N1 | 176 to 178 °C
23 | Cc1cnc(C#N)c(C)c1 | 58 to 60 °C
24 | O=c1[nH]cnc2ccc(Br)cc12 | 267 to 271 °C
25 | CCC(=CC(=O)O)c1cccc(Cl)c1 | 79 to 81 °C

Row | Structure (SMILES) | melting point
26 | NC(=S)Nc1cccc(Oc2ccccc2)c1 | 119 to 121 °C
27 | O=C(CCl)NOCc1ccccc1 | 92 to 94 °C
28 | O=c1cc(O)c2ccccc2o1 | 211 to 215 °C
29 | CCN1CCN(S(=O)(=O)c2ccc(Cl)c(C(=O)O)c2)CC1 | 189 to 191 °C
30 | Cc1cccc(C(C)C(=O)O)c1 (centres undefined) | 61 to 63 °C
31 | Cc1cc(N)n(C2CC3CCC2C3)n1 (centres undefined) | 59 to 61 °C
32 | NCC(O)c1cc2ccccc2s1 (centres undefined) | 128 to 130 °C
33 | Cc1ccc(SCCC(=O)O)cc1C | 35 to 37 °C
34 | O=C(NCCO)c1ccn[nH]1 | 169 to 171 °C
35 | Cc1cccc(-n2c(C)cc(C(=O)CCl)c2C)c1 | 99 to 101 °C
36 | NS(=O)(=O)c1cccc(-c2nnco2)c1 | 184 to 186 °C
37 | CCOC(=O)c1[nH]c(C)c(C(=O)CCl)c1C | 159 to 161 °C
38 | CCN(CC)S(=O)(=O)c1cccc(C(=O)NC(C(=O)O)C(C)C)c1 (centres undefined) | 110 to 112 °C
39 | CC(=O)Nc1ccc(S(=O)(=O)NC(C)C(=O)O)cc1 (centres undefined) | 178 to 180 °C
40 | NC(=O)C1CNCCN1 (centres undefined) | 142 to 144 °C
41 | O=C(O)CCS(=O)(=O)Cc1cccc(Br)c1 | 156 to 158 °C
42 | COC(=O)C(=O)CC(=O)c1ccc2c(c1)OCO2 | 98 to 105 °C
43 | O=Cc1cc([N+](=O)[O-])ccc1OC(F)F | 46 to 48 °C
44 | N#CCCNc1cccc(Cl)c1 | 141 to 143 °C
45 | CN(C)S(N)(=O)=O | 94 to 96 °C
46 | O=C(CCl)NCC1CCN(c2ccccc2)C1 (centres undefined) | 61 to 63 °C
47 | O=C(O)C1CCCN1C(=O)c1ccncc1 (centres undefined) | 79 to 81 °C
48 | N#Cc1cccc([N+](=O)[O-])c1O | 130 to 132 °C
49 | COc1cc(OC)cc(C(=O)c2c(N)sc3c2CCC(C)C3)c1 (centres undefined) | 162 to 164 °C
50 | Cc1cncc(C(=O)O)c1O | 249 to 251 °C

Row | Structure (SMILES) | melting point
51 | CCS(=O)(=O)NCCS(=O)(=O)Cl | 68 to 70 °C
52 | CCCCC(NC(=O)C(C)NC(C)=O)C(=O)O (centres undefined) | 143 to 145 °C
53 | O=C(O)Cn1cc(Br)c(=O)[nH]c1=O | 266 to 268 °C
54 | O=C(O)Cn1cc(C2CC2)nn1 | 183 to 185 °C
55 | O=C(O)CCOc1cccnc1 | 174 to 176 °C
56 | CCCC(=O)Nc1nc2ccc(N)cc2s1 | 182 to 184 °C
57 | O=C(O)CCSc1ccc2c(c1)OCCCO2 | 63 to 65 °C
58 | O=C(O)c1cc([N+](=O)[O-])cc([N+](=O)[O-])c1F | 204 to 206 °C
59 | O=c1c2ccccc2nc(S)n1-c1ccc(Cl)cc1 | 336 to 338 °C
60 | O=S(=O)(Cl)c1cn2c(n1)CCCC2 | 74 to 76 °C
61 | Clc1ccc(C2CNCCO2)cc1 (centres undefined) | 55 to 57 °C
62 | O=c1[nH]c2ccccc2c(O)c1[N+](=O)[O-] | 209 to 211 °C
63 | N#CCn1cc(Br)cn1 | 60 to 62 °C
64 | O=C(O)C1CCN(C(=O)c2ccc3[nH]ncc3c2)CC1 | 246 to 248 °C
65 | CC(=O)N1CCC(N)CC1 | 19 to 21 °C
66 | COc1ncc(C(=O)O)cn1 | 219 to 221 °C
67 | Cc1cc(C)cc(C(=O)/C=C2\NC(=O)CS2)c1 | 163 to 165 °C
68 | N#CCNc1cccc(Cl)c1 | 51 to 53 °C
69 | CS(=O)(=O)c1cc(N)cc(C(=O)O)c1 | 257 to 259 °C
70 | CCOC(=O)c1cc([N+](=O)[O-])cnc1C | 45 to 52 °C
71 | N#Cc1ccnc(-n2cncn2)c1 | 149 to 151 °C
72 | CC(C)c1ccc2c(c1)C(=O)C(=O)N2 | 93 to 95 °C
73 | NC(=O)NC(=O)CCl | 181 to 183 °C
74 | NC(=NO)c1cnn2cccnc12 | 177 to 179 °C
75 | CC(C)n1[nH]c(-c2ccc(F)cc2)cc1=O | 156 to 158 °C

Row | Structure (SMILES) | melting point
76 | CC(C)n1ncc(C(=O)O)c1N | 109 to 111 °C
77 | O=C(O)CSCC(=O)c1ccc(Cl)cc1 | 81 to 83 °C
78 | O=C(O)c1cc(Br)c(S(=O)(=O)Cl)c(Br)c1 | 199 to 201 °C
79 | O=C(O)c1cc([N+](=O)[O-])ccc1SC1CCCC1 | 203 to 205 °C
80 | COC(=O)c1cc(S(=O)(=O)Cl)cc(F)c1F | 56 to 58 °C
81 | COc1ccc(C(=O)O)cc1S(=O)(=O)Cl | 153 to 155 °C
82 | O=C(NC(Cc1cccnc1)C(=O)O)c1ccccc1 (centres undefined) | 176 to 178 °C
83 | C=CC(=O)Nc1cc(Cl)c(OC)cc1OC | 142 to 144 °C
84 | Cc1cc(Cl)c(C#N)c(C)n1 | 65 to 67 °C
85 | CC(=O)NCc1ccc(C(=O)O)s1 | 186 to 188 °C
86 | CCOc1ccc(S(=O)(=O)N(CC)CC)cc1N | 119 to 121 °C
87 | COc1cccc(NC(=S)NN)c1 | 168 to 170 °C
88 | Cc1ccc(NC(=O)CCl)c(C)c1 | 153 to 155 °C
89 | O=C(O)C1CC(=O)N(c2cccc(Cl)c2)C1 (centres undefined) | 133 to 135 °C
90 | Cc1sc(N)nc1C(C)C | 107 to 109 °C
91 | CC(Oc1ccc(F)cc1Cl)C(=O)O (centres undefined) | 72 to 74 °C
92 | ClCc1nc(-c2ccsc2)no1 | 52 to 56 °C
93 | CS(=O)(=O)c1ccccc1F | 49 to 53 °C
94 | Nc1ccc([N+](=O)[O-])cc1Br | 99 to 101 °C
95 | Cc1ccc(N(C(=O)CCl)C2C=CS(=O)(=O)C2)cc1 (centres undefined) | 118 to 120 °C
96 | CC1(C)CCc2[nH]c(=O)c(C(=O)O)cc2C1 | 242 to 244 °C
97 | CC(C)c1nn(C)c2sc(C(=O)O)cc12 | 209 to 211 °C
98 | ClCc1ccc(I)cc1 | 49 to 51 °C
99 | C#Cc1ccc(C(=O)O)cn1 | 129 to 131 °C
100 | O=C(O)CCCCNC(=O)c1ccc2[nH]nnc2c1 | 189 to 191 °C

Results, then the compound that gave them:

Row | melting point | Structure (SMILES)
101 | 192 to 194 °C | Oc1cccc(Oc2ncccn2)c1
102 | 80 to 82 °C | ClCc1ncc(-c2ccc(Br)cc2)o1
103 | 111 to 115 °C | COc1cc(C=O)ccc1OCc1c(C)noc1C
104 | 249 to 251 °C | O=C(O)c1cccnc1-n1cnc2ccccc21
105 | 188 to 190 °C | Cc1c(C(=O)O)nnn1-c1cccc2cccnc12
106 | 136 to 138 °C | Cc1ccc2nc(CCl)cc(=O)n2c1
107 | 59 to 61 °C | ONCc1ccc(F)cc1
108 | 118 to 120 °C | Cc1cc(N)n(-c2ccc(OC(F)(F)F)cc2)n1
109 | 169 to 171 °C | O=C(O)c1cc(-c2ccc(Cl)s2)on1
110 | 62 to 64 °C | Cc1noc(COc2ccc(O)cc2)n1
111 | 224 to 226 °C | Cc1noc2nc3c(cc12)CCOC3=O
112 | 174 to 176 °C | Cn1c(-c2cccc(O)c2)nc2ccccc21
113 | 134 to 138 °C | COc1ccc(-c2[nH]c3ccc(F)cc3c2CCC(=O)O)cc1
114 | 74 to 76 °C | O=C(O)CCCOc1ccc(F)cc1F
115 | 124 to 126 °C | CC(c1ccccc1)n1c(N)nc2ccccc21 (centres undefined)
116 | 181 to 183 °C | COc1cccc(-c2nnn[nH]2)c1
117 | 254 to 256 °C | O=c1nc2ccccc2c(-c2ccccc2)[nH]1
118 | 115 to 117 °C | CN(C)c1nc(C=O)c(Cl)n1-c1ccc(Br)cc1
119 | 42 to 44 °C | COC(C#N)c1ccc([N+](=O)[O-])cc1 (centres undefined)
120 | 169 to 171 °C | Cc1c(C(=O)O)cnn1-c1cccc(Br)c1
121 | 69 to 71 °C | Nc1ccc(Cl)c(C(=O)NCc2cccs2)c1
122 | 256 to 258 °C | Cn1cnnc1-c1ccc(N)cc1

Row | melting point | Structure (SMILES)
123 | 149 to 151 °C | CC(C)NC(=O)c1ccc(N)cc1
124 | 60 to 64 °C | Cc1ccc(C2NCC(CCl)O2)cc1 (centres undefined)
125 | 96 to 98 °C | Cc1c(S(=O)(=O)Cl)cnn1-c1ccc(F)cc1
126 | 89 to 91 °C | Cc1c(Br)cccc1CO
127 | 87 to 89 °C | COC(=O)c1cc(Cl)nc2ccccc12
128 | 172 to 174 °C | COC(=O)COc1ccc(C(=O)O)cc1
129 | 205 to 207 °C | O=C(O)c1cnoc1-c1ccc(Cl)cc1
130 | 217 to 219 °C | CC(=O)Nc1ccc2nc(N)sc2c1
131 | 113 to 115 °C | O=C(O)c1cccc(OCc2ccccc2)c1
132 | 148 to 150 °C | O=C(O)Cc1coc(-c2ccccc2)n1
133 | 129 to 131 °C | O=C(O)CCc1nc(-c2cc(Br)cs2)no1
134 | 99 to 101 °C | Clc1ccnc2cc(Br)ccc12
135 | 127 to 129 °C | CC(=NO)c1ccc(OCC(F)(F)F)cc1
136 | 208 to 210 °C | Nc1ccc(-c2cncnc2)cc1
137 | 254 to 256 °C | O=C(O)c1ccc(-c2nc3ccccc3s2)s1
138 | 73 to 75 °C | CN(C)Cc1c(O)ccc2ccccc12
139 | 110 to 112 °C | Cc1ccc(-n2nnnc2S)cc1C
140 | 163 to 165 °C | Cc1nc(N)sc1-c1ccccc1
141 | 81 to 83 °C | O=C(O)c1cccc(S(=O)(=O)Nc2ccc(OCc3ccccc3)cc2)c1
142 | 195 to 197 °C | NC(=O)c1cccc(Oc2ccc(N)cn2)c1
143 | 194 to 196 °C | Cc1ccc(-n2nnc(CC(=O)O)c2C)cc1
144 | 205 to 207 °C | COc1ccc(/C=C(/C(=O)O)c2cccs2)cc1
